The record followed here is patent US4288590A, “7 -[Dα-(4-Hydroxy-1,5-naphthyridine-3-carboxamido)-α-arylacetam ido]-3-(N,N-dimethyl-aminomethylpyridinium) methyl-3-cephem-4-carboxylates” (Bristol-Myers Company, priority 1980, dated 1981).

The subject of assay [1] is E. cloacae. Briefly: In vitro activity, MIC of strain group (Table 2). It counts as cell-based. The note with it: Enterobacter cloacae; Gn-II E. cloacae, 7 strains; read-out: Geometric mean of MIC.
Assay [2] relates to S. aureus 209P A9497. Briefly: MIC, serial two-fold agar dilution (Table 1). Conditions: Staphylococcus aureus; S. aureus 209P A9497; Mueller-Hinton agar; read-out: MIC. The format is cell-based. As to the method:
(§1) Minimum inhibitory concentrations (MIC) of BB-S 651, BB-S 669 and BB-S 676 were determined by serial two-fold agar dilution method using Steers' apparatus on Mueller-Hinton agar plate against 15 test organisms for primary screening as shown in Table 1.
(In agar dilution the substance is mixed into plates at graded concentrations.)

Assay [3] relates to S. marcescens A20019. Briefly: MIC, serial two-fold agar dilution (Table 1). The note with it: Serratia marcescens, Mueller-Hinton agar. It counts as cell-based. On the procedure: as §1
Assay [4] deals with E. coli A15164. Briefly: MIC, serial two-fold agar dilution (Table 1). It counts as cell-based. The note with it: Escherichia coli; E. coli A15164, cephalothin-resistant; Mueller-Hinton agar. As to the method:
as §1

Assay [5] deals with E. coli A15148. Briefly: MIC, serial two-fold agar dilution (Table 1). It counts as cell-based. The note with it: Escherichia coli; E. coli A15148, cephalothin-resistant; Mueller-Hinton agar. On the procedure:
as §1

The subject of assay [6] is E. coli A9660. Briefly: MIC, serial two-fold agar dilution (Table 1). The format is cell-based. Conditions: Escherichia coli; E. coli A9660, cephalothin-sensitive; Mueller-Hinton agar. As to the method:
as §1

Assay [7] deals with Ps. aeruginosa A20717. Briefly: MIC, serial two-fold agar dilution (Table 1). The format is cell-based. The note with it: Pseudomonas aeruginosa, Mueller-Hinton agar. On the procedure:
as §1

Assay [8] concerns S. aureus Smith A9537. Briefly: MIC, serial two-fold agar dilution (Table 1). It counts as cell-based. Conditions: Staphylococcus aureus, SMITHA9537, Mueller-Hinton agar. On the procedure: as §1
Assay [9] has as its system Ps. aeruginosa A9843. Briefly: MIC, serial two-fold agar dilution (Table 1). The format is cell-based. Conditions: Pseudomonas aeruginosa, Mueller-Hinton agar. As to the method: as §1
The subject of assay [10] is Ps. aeruginosa A15150. Briefly: MIC, serial two-fold agar dilution (Table 1). It counts as cell-based. Conditions: Pseudomonas aeruginosa, Mueller-Hinton agar. On the procedure:
as §1

The test system of assay [11] is E. cloacae A9656. Briefly: MIC, serial two-fold agar dilution (Table 1). The format is cell-based. The note with it: Enterobacter cloacae, Mueller-Hinton agar. As to the method: as §1
Assay [12] relates to E. coli Juhl A15119. Briefly: MIC, serial two-fold agar dilution (Table 1). Conditions: Escherichia coli, JUHLA15119; E. coli Juhl A15119, cephalothin-sensitive; Mueller-Hinton agar. The format is cell-based. As to the method: as §1
The test system of assay [13] is Ps. aeruginosa A20229. Briefly: MIC, serial two-fold agar dilution (Table 1). It counts as cell-based. The note with it: Pseudomonas aeruginosa, Mueller-Hinton agar. As to the method:
as §1

Assay [14] relates to S. aureus BX-1633-2 A9606. Briefly: MIC, serial two-fold agar dilution (Table 1). The note with it: Staphylococcus aureus, BX16332A9606; S. aureus BX-1633-2 A9606, penicillinase-producing; Mueller-Hinton agar; read-out: MIC. It counts as cell-based. As to the method: as §1
Assay [15] relates to Ps. aeruginosa A20718. Briefly: MIC, serial two-fold agar dilution (Table 1). Conditions: Pseudomonas aeruginosa, Mueller-Hinton agar. The format is cell-based. As to the method: as §1
Assay [16] has as its system S. aureus #193. Briefly: MIC, serial two-fold agar dilution (Table 1). It counts as cell-based. The note with it: Staphylococcus aureus; S. aureus #193, penicillinase-producing; Mueller-Hinton agar; read-out: MIC. On the procedure: as §1
Assay [17] has as its system P. morganii A15153. Briefly: In vivo efficacy, experimental infection in mice. The note with it: Morganella morganii, A15153, in Mus musculus, im, 120 h, read-out: PD50 (median protective dose).
Description: The mice were treated with test compound by im route immediately after the bacterial challenge.
In assay [18] the test system is S. marcescens. Briefly: In vitro activity, MIC of strain group (Table 2). The note with it: Serratia marcescens; Gn-II S. marcescens, 10 strains; read-out: Geometric mean of MIC. It counts as cell-based. As to the method:
as §1

Assay [19] relates to E. coli (Gn-Ib). Briefly: In vitro activity, MIC of strain group (Table 2). It counts as cell-based. Conditions: Escherichia coli, 13 strains, read-out: Geometric mean of MIC. As to the method: as §1
For assay [20], the system named is Indole(+) Proteus sp. Briefly: In vitro activity, MIC of strain group (Table 2). It counts as cell-based. The note with it: Gn-II Indole(+) Proteus sp., 8 strains; read-out: Geometric mean of MIC. On the procedure:
as §1

For assay [21], the system named is K. pneumoniae (Gn-Ia). Briefly: In vitro activity, MIC of strain group (Table 2). It counts as cell-based. Conditions: Klebsiella pneumoniae, 10 strains, read-out: Geometric mean of MIC. As to the method:
as §1

The structures appear in SMILES notation. Structures can show the parent of a compound that is named as a salt. Bounds are passed on as bounds.

On to `CN(C)Cc1ccc[n+](CC2=C(C(=O)[O-])N3C(=O)C(NC(=O)[C@H](NC(=O)c4cnc5cccnc5c4O)c4ccc(O)cc4)C3SC2)c1` (stereo partly drawn) [BB-S 651, 7-[D-α-(4-Hydroxy-1,5-naphthyridine-3-carboxamido)-α-(4-hydroxyphenyl)acetamido]-3-(3-N,N-dimethylaminomethylpyridinium)methyl-3-cephem-4-carboxylate Hydrochloride], for which the MIC – broadly, the smallest concentration in the dilution series that meets the test's criterion for growth inhibition – in [1] is over 100 µg/mL; in [2], 0.8 µg/mL; in assay [3] it was 50 µg/mL; in [4], 25 µg/mL; in [5] it was 3.1 µg/mL; in assay [6], 1.6 µg/mL. For the same compound, the MIC turned out to be 1.6 µg/mL in assay [7]; 3.1 µg/mL in assay [8]; 1.6 µg/mL in [9]; 0.8 µg/mL in assay [10]; 12.5 µg/mL in assay [11]; 6.3 µg/mL in [12]. The minimal inhibitory concentration (MIC) in assay [13] is 0.8 µg/mL; in assay [14], 6.3 µg/mL; in assay [15], 0.8 µg/mL; in assay [16], 6.3 µg/mL; in assay [18], over 100 µg/mL; in [19] it was 29 µg/mL. Further, the MIC is over 100 µg/mL in [20] and 18 µg/mL in assay [21]. In [17], the ED50 was over 100 mg/kg.

`CCN1CCN(C(=O)N[C@@H](C(=O)N[C@@H]2C(=O)N3C(C(=O)O)=C(CSc4nnnn4C)CS[C@H]23)c2ccc(O)cc2)C(=O)C1=O` [Cefoperazone, reference compound]: the ED50 in assay [17] came out at 6.3 mg/kg. The MIC in assay [18] came to 47 µg/mL; in assay [19], 3.7 µg/mL; in assay [20], 3.5 µg/mL; in [21], 0.9 µg/mL.
